Reference: US6156700A, “3-(1,2-Benzisothiazol- and isoxazol-5-yl)-2,4(1H,3H)-pyrimidinedione or thione and 3-(1,2-benzisothiazol- and isoxazol-5-yl)-4(3H)-pyrimidinone or thione herbicidal agents” (American Cyanmid Company, priority 1998, dated 2000)

Key:
[1] = test system: Velvetleaf, Abutilon theophrasti; assay: Postemergence herbicidal evaluation, ABUTH; assay type: in vivo, Medic.
Summary of the method: (§1)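 Foliar spray, 40 psi, ~0.0157–0.500 kg a.i./ha, vehicle acetone/water 1:1 with 0.5% TWEEN 20, on seedlings grown ~2 weeks. Readout: 0–9 visual injury score relative to control at 4–5 weeks.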

[2] = test system: Sicklepod, Cassia obtusifolia; assay: Postemergence herbicidal evaluation, CASOB; assay type: in vivo, L.
Summary of the method: as §1

[3] = test system: Morningglory Spp., Ipomoea Spp.; assay: Postemergence herbicidal evaluation, IPOSS; assay type: in vivo; conditions: 0.2500 kg/ha
Procedure: In the tests, seedling plants are grown in jiffy flats for about two weeks. The test compounds are dispersed in 50/50 acetone/water mixtures containing 0.5% TWEEN®20, a polyoxyethylene sorbitan monolaurate surfactant of Atlas Chemical Industries, in sufficient quantities to provide the equivalent of about 0.0157 kg to 0.500 kg per hectare of active compound when applied to the plants through a spray nozzle operating at 40 psi for a predetermined time. After spraying, the plants are placed on greenhouse benches and are cared for in accordance with conventional greenhouse procedures. From four to five weeks after treatment, the seedling plants are examined and rated according to the rating system set forth below. Where more than one test is involved for a given compound, the data are averaged.
(§2) Results of herbicide evaluation are expressed on a rating scale (0-9). The scale is based upon a visual observation of plant stand, vigor, malformation, size, chlorosis and overall plant appearance as compared with a control.

[4] = test system: Rice, Tebonnet, Oryza sativa; assay: Postemergence herbicidal evaluation, ORYSAT; assay type: in vivo, (L.) Tebonnet
Summary of the method: as §1

[5] = test system: Wheat, Winter, cv Riband, Triticum aestivum; assay: Postemergence herbicidal evaluation, TRZAWR; assay type: in vivo
Summary of the method: as §1

[6] = test system: Corn, Field, Zea mays; assay: Postemergence herbicidal evaluation, ZEAMX; assay type: in vivo, L.
Summary of the method: as §1

[7] = test system: Ragweed, Common, Ambrosia artemisifolia; assay: Preemergence herbicidal evaluation, AMBEL; assay type: in vivo, L.; conditions: 0.2500 kg/ha
Description: as §2
(§3) The preemergence herbicidal activity of the test compounds of the present invention is exemplified by the following tests in which the seeds of a variety of monocotyledonous and dicotyledonous plants are separately mixed with potting soil and planted on top of approximately one inch of soil in separate pint cups. After planting, the cups are sprayed with the selected aqueous acetone solution containing test compound in sufficient quantity to provide the equivalent of about 0.0156 to 0.500 kg per hectare of test compound per cup. The treated cups are then placed on greenhouse benches, watered and cared for in accordance with conventional greenhouse procedures. From four to five weeks after treatment, the tests are terminated and each cup is examined and rated according to the rating system provided in Example 185.
(§4) The compounds evaluated are reported by compound number given in Example 185.

[8] = test system: Sicklepod, Cassia obtusifolia; assay: Preemergence herbicidal evaluation, CASOB; assay type: in vivo, L.; conditions: 0.2500 kg/ha
Description: as §2, §3, §4

[9] = test system: Morningglory Spp., Ipomoea Spp.; assay: Preemergence herbicidal evaluation, IPOSS; assay type: in vivo; conditions: 0.2500 kg/ha
Description: as §2, §3, §4

[10] = test system: Barnyardgrass, Echinochloa crus-galli; assay: Preemergence herbicidal evaluation, ECHCG; assay type: in vivo, (L.) Beau; conditions: 0.2500 kg/ha
Description: as §2, §3, §4

[11] = test system: Foxtail, Green, Setaria viridis; assay: Preemergence herbicidal evaluation, SETVI; assay type: in vivo, (L.) Beau; conditions: 0.2500 kg/ha
Description: as §2, §3, §4

[12] = test system: Rice, Tebonnet, Oryza sativa; assay: Preemergence herbicidal evaluation, ORYSAT; assay type: in vivo, (L.) Tebonnet; conditions: 0.2500 kg/ha
Description: as §2, §3, §4

[13] = test system: Wheat, Winter, cv Riband, Triticum aestivum; assay: Preemergence herbicidal evaluation, TRZAWR; assay type: in vivo; conditions: 0.2500 kg/ha
Description: as §2, §3, §4

[14] = test system: Corn, Field, Zea mays; assay: Preemergence herbicidal evaluation, ZEAMX; assay type: in vivo, L.; conditions: 0.2500 kg/ha
Description: as §2, §3, §4

[15] = test system: ECHORC Watergrass (Calif.); assay: Preemergence weed control, flooded paddy (Table III); assay type: in vivo, Echinochloa oryzoides; design: scale not given here
Procedure: (§5) Preemergence herbicidal activity under flooded paddy conditions is determined as follows: plant seeds or propagating organs are planted in the top 0.5 cm of silt loam soil in 32 oz. plastic containers with a diameter of 10.5 cm and no drainage holes. Water is added to these containers and maintained at 1.5 to 3 cm above the soil surface for the duration of the experiment. The test compounds are applied as aqueous/acetone mixtures 50/50 v/v pipetted directly into the flood water to give the equivalent of about 0.0313 to 0.500 kg/ha of active ingredient. The treated containers are placed on greenhouse benches and cared for in accordance with conventional greenhouse procedures. Three to four weeks after treatment, the test is terminated and each container is examined and herbicidal effect rated according to the rating system provided in Example 185. The compounds evaluated are reported by compound number given in Example 185.

[16] = test system: CYPIR Rice Flatsedge; assay: as above; assay type: in vivo, Cyperus iria; design: scale not given here
Procedure: as §5

[17] = test system: CYPSE Flatsedge; assay: as above; assay type: in vivo, Cyperus serotinus; design: scale not given here
Procedure: as §5

[18] = test system: MOOVA Monochoria; assay: as above; assay type: in vivo, Monochoria vaginalis; design: scale not given here
Procedure: as §5

[19] = test system: SAGPY Arrowhead (Pygmaea); assay: as above; assay type: in vivo, Sagittaria pygmaea; design: scale not given here
Procedure: as §5

[20] = test system: CYPSE Flatsedge; assay: Postemergence weed control, flooded paddy (Table IV); assay type: in vivo, Cyperus serotinus; design: scale not given here
Description: (§6) Plastic containers containing weeds which are 3 to 5 cm tall and rice seedlings at the 1.5 to 2.5 leaf stage are flooded with water. The water is maintained at 1.5 to 3 cm above the soil surface for the duration of the experiment. Test compounds are applied as aqueous/acetone mixtures 50/50 v/v directly into the flood water to provide the equivalent of about 0.0313 to 0.500 kg/ha of active ingredient. The treated containers are placed on greenhouse benches and cared for in accordance with conventional greenhouse procedures. Three to four weeks after treatment, the test is terminated and each container is examined and herbicidal effect rated according to the rating system provided in Example 185. The compounds evaluated are reported by compound number given in Example 185.

[21] = test system: MOOVA Monochoria; assay: as above; assay type: in vivo, Monochoria vaginalis; design: scale not given here
Description: as §6

COc1ccc(C)cc1-c1nsc2ccc(-n3c(=O)cc(C(F)(F)F)n(C)c3=O)cc12 [Compound 1, 3-[3-(6-Methoxy-m-tolyl)-1,2-benzisothiazol-5-yl]-1-methyl-6-(trifluoromethyl)-2,4(1H,3H)-pyrimidinedione]
herbicide rating (0-9) ([1]; 0.0630 kg/ha): 9.0 | herbicide rating (0-9) ([1]; 0.2500 kg/ha): 9.0 | herbicide rating (0-9) ([2]; 0.0630 kg/ha): 9.0 | herbicide rating (0-9) ([2]; 0.2500 kg/ha): 8.0 | herbicide rating (0-9) [3]: 9.0 | herbicide rating (0-9) ([4]; 0.0630 kg/ha): 4.3 | herbicide rating (0-9) ([4]; 0.2500 kg/ha): 5.0 | herbicide rating (0-9) ([5]; 0.0630 kg/ha): 5.3 | herbicide rating (0-9) ([5]; 0.2500 kg/ha): 5.5 | herbicide rating (0-9) ([6]; 0.0630 kg/ha): 6.0 | herbicide rating (0-9) ([6]; 0.2500 kg/ha): 7.0 | herbicide rating (0-9) [7]: 9.0 | herbicide rating (0-9) [8]: 9.0 | herbicide rating (0-9) [9]: 4.0 | herbicide rating (0-9) [10]: 9.0 | herbicide rating (0-9) [11]: 9.0 | herbicide rating (0-9) [12]: 7.5 | herbicide rating (0-9) [13]: 6.0 | herbicide rating (0-9) [14]: 6.5 | herbicidal effect rating ([15]; 0.0313 kg/ha): 9.0 | herbicidal effect rating ([15]; 0.0625 kg/ha): 9.0 | herbicidal effect rating ([15]; 0.1250 kg/ha): 9.0 | herbicidal effect rating ([15]; 0.2500 kg/ha): 9.0 | herbicidal effect rating ([15]; 0.5000 kg/ha): 9.0 | herbicidal effect rating ([16]; 0.0313 kg/ha): 9.0 | herbicidal effect rating ([16]; 0.0625 kg/ha): 9.0 | herbicidal effect rating ([16]; 0.1250 kg/ha): 9.0 | herbicidal effect rating ([16]; 0.2500 kg/ha): 9.0 | herbicidal effect rating ([16]; 0.5000 kg/ha): 9.0 | herbicidal effect rating ([17]; 0.0313 kg/ha): 1.3 | herbicidal effect rating ([17]; 0.0625 kg/ha): 3.0 | herbicidal effect rating ([17]; 0.1250 kg/ha): 6.0 | herbicidal effect rating ([17]; 0.2500 kg/ha): 9.0 | herbicidal effect rating ([17]; 0.5000 kg/ha): 8.0 | herbicidal effect rating ([18]; 0.0313 kg/ha): 9.0 | herbicidal effect rating ([18]; 0.0625 kg/ha): 9.0 | herbicidal effect rating ([18]; 0.1250 kg/ha): 9.0 | herbicidal effect rating ([18]; 0.2500 kg/ha): 9.0 | herbicidal effect rating ([18]; 0.5000 kg/ha): 9.0 | herbicidal effect rating ([19]; 0.0313 kg/ha): 3.3 | herbicidal effect rating ([19]; 0.0625 kg/ha): 5.0 | herbicidal effect rating ([19]; 0.1250 kg/ha): 6.7 | herbicidal effect rating ([19]; 0.2500 kg/ha): 8.3 | herbicidal effect rating ([19]; 0.5000 kg/ha): 8.5 | herbicidal effect rating ([20]; 0.1250 kg/ha): 3.0 | herbicidal effect rating ([20]; 0.2500 kg/ha): 5.5 | herbicidal effect rating ([20]; 0.5000 kg/ha): 6.5 | herbicidal effect rating ([21]; 0.1250 kg/ha): 4.5 | herbicidal effect rating ([21]; 0.2500 kg/ha): 5.5 | herbicidal effect rating ([21]; 0.5000 kg/ha): 6.5
